Experiment: relative permittivity at various frequencies (dimensionless); wn = mass fraction of the nth substance listed
Details: Liquid, direct capacitance:P =

O=C=O [carbon dioxide] + CCO
Details | relative permittivity
303.4 K, 10000 kPa, w2 = 0.05 | 1.83
303.4 K, 11400 kPa, w2 = 0.05 | 1.86
303.4 K, 13200 kPa, w2 = 0.05 | 1.89
303.4 K, 13600 kPa, w2 = 0.05 | 1.9
303.4 K, 14800 kPa, w2 = 0.05 | 1.91
303.4 K, 15300 kPa, w2 = 0.05 | 1.92
303.4 K, 15800 kPa, w2 = 0.05 | 1.92
303.4 K, 16000 kPa, w2 = 0.05 | 1.93
303.4 K, 17500 kPa, w2 = 0.05 | 1.94
303.4 K, 19000 kPa, w2 = 0.05 | 1.95
303.4 K, 19200 kPa, w2 = 0.05 | 1.95
303.4 K, 21000 kPa, w2 = 0.05 | 1.97
303.4 K, 21300 kPa, w2 = 0.05 | 1.97
303.4 K, 23000 kPa, w2 = 0.05 | 1.98
303.4 K, 23300 kPa, w2 = 0.05 | 1.99
303.4 K, 25100 kPa, w2 = 0.05 | 2
303.4 K, 25400 kPa, w2 = 0.05 | 2
303.4 K, 26700 kPa, w2 = 0.05 | 2.01
303.4 K, 27200 kPa, w2 = 0.05 | 2.01
303.4 K, 28900 kPa, w2 = 0.05 | 2.02
303.4 K, 29600 kPa, w2 = 0.05 | 2.03
303.7 K, 7200 kPa, w2 = 0.212 | 3.15
303.7 K, 7900 kPa, w2 = 0.212 | 3.18
303.7 K, 8800 kPa, w2 = 0.212 | 3.22
303.7 K, 9800 kPa, w2 = 0.1 | 2.24
303.7 K, 9800 kPa, w2 = 0.212 | 3.25
303.7 K, 11000 kPa, w2 = 0.212 | 3.29
303.7 K, 11300 kPa, w2 = 0.1 | 2.27
303.7 K, 11400 kPa, w2 = 0.1 | 2.28
303.7 K, 13000 kPa, w2 = 0.212 | 3.35
303.7 K, 13100 kPa, w2 = 0.1 | 2.3
303.7 K, 14000 kPa, w2 = 0.1 | 2.32
303.7 K, 14900 kPa, w2 = 0.1 | 2.34
303.7 K, 14900 kPa, w2 = 0.212 | 3.4
303.7 K, 15000 kPa, w2 = 0.212 | 3.4
303.7 K, 16000 kPa, w2 = 0.1 | 2.36
303.7 K, 16500 kPa, w2 = 0.212 | 3.44
303.7 K, 16700 kPa, w2 = 0.212 | 3.45
303.7 K, 16900 kPa, w2 = 0.1 | 2.37
303.7 K, 17300 kPa, w2 = 0.212 | 3.46
303.7 K, 17800 kPa, w2 = 0.1 | 2.38
303.7 K, 18000 kPa, w2 = 0.212 | 3.47
303.7 K, 18800 kPa, w2 = 0.212 | 3.49
303.7 K, 19100 kPa, w2 = 0.1 | 2.4
303.7 K, 19900 kPa, w2 = 0.1 | 2.41
303.7 K, 20200 kPa, w2 = 0.212 | 3.52
303.7 K, 20400 kPa, w2 = 0.1 | 2.42
303.7 K, 21400 kPa, w2 = 0.1 | 2.43
303.7 K, 21600 kPa, w2 = 0.212 | 3.54
303.7 K, 21800 kPa, w2 = 0.212 | 3.55
303.7 K, 21900 kPa, w2 = 0.1 | 2.43
303.7 K, 23100 kPa, w2 = 0.1 | 2.45
303.7 K, 23300 kPa, w2 = 0.212 | 3.57
303.7 K, 23900 kPa, w2 = 0.212 | 3.58
303.7 K, 24100 kPa, w2 = 0.1 | 2.46
303.7 K, 24200 kPa, w2 = 0.1 | 2.46
303.7 K, 25300 kPa, w2 = 0.1 | 2.47
303.7 K, 25400 kPa, w2 = 0.212 | 3.61
303.7 K, 25500 kPa, w2 = 0.1 | 2.48
303.7 K, 26200 kPa, w2 = 0.212 | 3.62
303.7 K, 26500 kPa, w2 = 0.1 | 2.48
303.7 K, 27200 kPa, w2 = 0.212 | 3.64
303.7 K, 27400 kPa, w2 = 0.1 | 2.49
303.7 K, 28000 kPa, w2 = 0.1 | 2.5
303.7 K, 28400 kPa, w2 = 0.1 | 2.5
303.7 K, 28400 kPa, w2 = 0.212 | 3.66
303.7 K, 29400 kPa, w2 = 0.1 | 2.51
303.7 K, 30200 kPa, w2 = 0.212 | 3.68
304.9 K, 16100 kPa, w2 = 0.152 | 2.67
304.9 K, 16800 kPa, w2 = 0.152 | 2.68
304.9 K, 17300 kPa, w2 = 0.152 | 2.68
304.9 K, 17800 kPa, w2 = 0.152 | 2.69
304.9 K, 18800 kPa, w2 = 0.152 | 2.7
304.9 K, 19400 kPa, w2 = 0.152 | 2.72
304.9 K, 20100 kPa, w2 = 0.152 | 2.73
304.9 K, 20800 kPa, w2 = 0.152 | 2.74
304.9 K, 21900 kPa, w2 = 0.152 | 2.75
304.9 K, 22800 kPa, w2 = 0.152 | 2.76
304.9 K, 23700 kPa, w2 = 0.152 | 2.77
304.9 K, 24300 kPa, w2 = 0.152 | 2.79
304.9 K, 24700 kPa, w2 = 0.152 | 2.78
304.9 K, 25500 kPa, w2 = 0.152 | 2.79
304.9 K, 26400 kPa, w2 = 0.152 | 2.81
304.9 K, 26500 kPa, w2 = 0.152 | 2.81
304.9 K, 27200 kPa, w2 = 0.152 | 2.82
304.9 K, 28200 kPa, w2 = 0.152 | 2.83
304.9 K, 29100 kPa, w2 = 0.152 | 2.84
